In patent US9701681B2, “Fused ring heteroaryl compounds and their use as Trk inhibitors” (CMG Pharmaceutical Co., Ltd., priority 2014, dated 2017):

Key:
[1] = biological target: T1, TRK A, B & C kinase; assay: TRK A, B & C kinase assay (ADP-Glo / HTRF KinEASE-TK); format: biochemical; settings: ADP-Glo or HTRF KinEASE-TK kit, isoform not specified, read-out: IC50 (nM) Enzymatic assay
T1 construct: fused on or other part: Carna's Trk kinases are usually GST-tagged cytoplasmic domains
Method: ADP-Glo assay kit was purchased from Promega. poly (Glu, Tyr), Magnesium sulfate, Bovine serum albumin (BSA) and dimethylsulfoxide(DMSO) were purchased from Sigma-Aldrich. Tris-HCl buffer was purchased from BD Gentest. HTRF KinEASE-TK kit was purchased from cisbio. TRK A, B & C kinase was purchased from Carna bioscience.
Kinase assay was performed for Chemical Compounds 1-61 using two methods using luminescent ADP-Glo assay kit (Promega) and HTRF KinEASE-TK assay kit (cisbio). The luminescent ADP-Glo assay kit (Promega) measures ADP formed from a kinase reaction. ADP converted into ATP, which is then converted into light by Ultra-Glo luciferase. The HTRF KinEASE-TK assay kit (cisbio) measures tyrosine kinase activities using one substrate and a universal detection system.
ADP-Glo Assay Kit (Promega)
The protein kinase assay was performed for Chemical Compounds 1-61 at […] concentrations are 0.4 ng/ul of TrKA, 0.5 ng/ul of TrKB and 3 ng/ul of TrKC, respectively), 5 μL of 1 ug/ul stock solution of poly(glu, Tyr), 5 μL of compounds or assay buffer, 5 μL of ATP (125 μM stock solution).
The assay was started by incubating the reaction mixture in a 96-well plate at 30° C. for 1 hr. After the incubation, the assay was terminated by the addition of 25 […] Detection Reagent was added, and the 96-well plate was shaken and then incubated for additional 30 min at ambient temperature. The 96-well reaction plate was then read on an Enspire plate reader. The IC50 values were derived through a curve fitting using SigmaPlot.
HTRF KinEASE-TK Assay Kit (Cisbio)
The HTRF KinEASE-TK assay was performed for Chemical Compounds 1-61 in 384-well low volume microplate (Greiner). The HTRF KinEASE-TK assay format involves the two steps. The first step is kinase reaction step. This kinase reaction step was performed at RT (room temperature) in final volume of 10 ul according to the following assay reaction recipe: 10 ul of kinase mixture (Kinase (2 ul)+ATP (2 ul)+Substrate (2 ul)+Compound (4 ul)). Kinase final concentrations were 0.3 ng/ul of TRKA, 0.1 ng/ul of TRKB, 0.03 ng/ul of TRKC, respectively. ATP final concentrations were 14.7 uM (TRKA), 4.77 uM (TRKB), 25.6 uM (TRKC) respectively. TK-substrate final concentration was 0.3 ng/ul. The mixtures exposed to Dose response concentration (DRC) compound from 0 to 100 nM for 40 min. During the kinase reaction step, the kinase reaction was started by the addition of ATP. Kinase phosphorylates the substrate.
The second is detection step. 10 ul of detection reagents (5 ul Sa-XL 665 in EDTA+5 ul TK Antibody-Eu in EDTA) was added to kinase mixture. This step was performed at room temperature for 1 hr. The detection reagent detects phosphorylated substrates.
Finally 384-well reaction plate was then read on FlexStation 3 machine. The fluorescence was measured at 620 nm (Cryptate) and 665 nm (XL665). A ratio is calculated ([…]/620)×10^4 for each well. The IC50 value was derived through a curve fitting using GraphPad Prism. Table 1 below includes the results of the assays.

[2] = test system: KM12-luc cells; assay: Cell proliferation assay (KM12); settings: 72 hours exposure, read-out: IC50 (nM) Cell-based assay (KM12)
Method: Doxorubicin was purchased from Sigma Aldrich (D1515). All compounds were diluted in DMSO (Sigma Aldrich, D2650). AlamarBlue® cell viability reagent was purchased from Thermo Scientific (88952). CellTiter 96® AQueous One Solution Cell proliferation assay was purchased from Promega. KM12-luc cells were obtained from JCRB (National Institute of Health Sciences, Tokyo, Japan). They were maintained in DMEM medium (GIB-11965-118) supplemented with 10% fetal bovine serum (Gibco, 16000-044) and MEM Non-Essential Amino Acids Solution (Thermo Scientific, 11140-050). TF-1 cells were obtained from ATCC. They were maintained in RPMI medium (GIB-A10491) supplemented with 10% fetal bovine serum (Gibco, 16000-044), GM-CSF (Thermo Scientific, 11140-050), and β-NGF (R&D systems). Trypsin/EDTA was purchased from Gibco (GIB-25300-054, 0.05%). 96-well plates were purchased from Corning Inc.
The proliferation assay was performed for Chemical Compounds 1-61 s in media supplemented with 10% FBS, using AlamarBlue® cell viability reagent or CellTiter 96® AQueous One Solution Cell proliferation assay kit. Cells were cultured in humidified 37° C. incubator with 5% CO2. To evaluate the antiproliferation activity of compounds, TF-1 cells were adjusted to GM-CSF free media (RPMI, 10% FBS, and 1% penicillin-streptomycin) for 16 hr and were seeded in 96-well plates at 30,000 cells/well with medium (RPMI, 10% FBS, 1% penicillin-streptomycin and 10 ng/ml human β-NGF). KM12-luc were seeded at 10,000 cells per well into 96-well plates. After overnight incubation, serial dilutions of compounds were added to triplicate wells, and cells were exposed for 72 hours. The final concentration of DMSO was adjusted to 0.5% in media. Quantitation of cell growth was assessed using two kinds of reagent. 20 ul of AlamarBlue® reagent in an amount equal to 10% of the culture volume was added to each well and were incubated in humidified 37° C. incubator with 5% CO2 for 2 hr. Otherwise, 20 ul of CellTiter 96® reagent was added to each well and were incubated in the same conditions as previously described. Data were plotted, and GI50 values were calculated using GraphPad software. Table 1 below includes the results of the assays.

Compound Fc1ccc(F)c([C@H]2CCCN2c2ccn3ncc(-c4nnc(N5CCNCC5)o4)c3n2)c1 [Chemical Compound 18, (R)-2-(5-(2-(2,5-difluorophenyl)pyrrolidin-1-yl)pyrazolo[1,5-a]pyrimidin-3-yl)-5-(piperazin-1-yl)-1,3,4-oxadiazole] has an IC50 [1] of over 100 nM.

With Fc1ccc(F)c([C@H]2CCCN2c2ccn3ncc(-c4nnc(-c5cn[nH]c5)s4)c3n2)c1 [Chemical Compound 19, (R)-2-(5-(2-(2,5-difluorophenyl)pyrrolidin-1-yl)pyrazolo[1,5-a]pyrimidin-3-yl)-5-(1H-pyrazol-4-yl)-1,3,4-thiadiazole] the IC50 [1] was under 10 nM.

Fc1ccc(F)c([C@H]2CCCN2c2ccn3ncc(-c4nnc(-c5cc[nH]n5)s4)c3n2)c1 [Chemical Compound 20, (R)-2-(5-(2-(2,5-difluorophenyl)pyrrolidin-1-yl)pyrazolo[1,5-a]pyrimidin-3-yl)-5-(1H-pyrazol-3-yl)-1,3,4-thiadiazole] showed an IC50 [1] of over 100 nM.

In the case of O=C(Nc1nnc(-c2cnn3ccc(N4CCC[C@@H]4c4cc(F)ccc4F)nc23)s1)c1ccccc1 [Chemical Compound 21, (R)—N-(5-(5-(2-(2,5-difluorophenyl)pyrrolidin-1-yl)pyrazolo[1,5-a]pyrimidin-3-yl)-1,3,4-thiadiazol-2-yl)benzamide], the IC50 [1] was over 100 nM.

In the case of Fc1ccc(F)c([C@H]2CCCN2c2ccn3ncc(-c4nnc(N5CCNCC5)s4)c3n2)c1 [Chemical Compound 22, (R)-2-(5-(2-(2,5-difluorophenyl)pyrrolidin-1-yl)pyrazolo[1,5-a]pyrimidin-3-yl)-5-(piperazin-1-yl)-1,3,4-thiadiazole], the IC50 [1] was under 10 nM.

Work on Fc1ccc(F)c([C@H]2CCCN2c2ccn3ncc(-c4nnc(N5CCCNCC5)s4)c3n2)c1 [Chemical Compound 23, (R)-2-(1,4-diazepan-1-yl)-5-(5-(2-(2,5-difluorophenyl)pyrrolidin-1-yl)pyrazolo[1,5-a]pyrimidin-3-yl)-1,3,4-thiadiazole] yielded an IC50 [1] of under 10 nM.

Fc1ccc(F)c([C@H]2CCCN2c2ccn3ncc(-c4nnc(C5CCNCC5)o4)c3n2)c1 [Chemical Compound 24, (R)-2-(5-(2-(2,5-difluorophenyl)pyrrolidin-1-yl)pyrazolo[1,5-a]pyrimidin-3-yl)-5-(piperidin-4-yl)-1,3,4-oxadiazole] showed an IC50 [1] of under 10 nM.

Fc1ccc(F)c([C@H]2CCCN2c2ccn3ncc(-c4cn(C5CCNCC5)nn4)c3n2)c1 [Chemical Compound 33, (R)-5-(2-(2,5-difluorophenyl)pyrrolidin-1-yl)-3-(1-(piperidin-4-yl)-1H-1,2,3-triazol-4-yl)pyrazolo[1,5-a]pyrimidine] showed an IC50 [1] of under 10 nM.

With Fc1ccc(F)c([C@H]2CCCN2c2ccn3ncc(-c4cn(C5CCCNC5)nn4)c3n2)c1 (stereo partly drawn) [Chemical Compound 34, 5-((R)-2-(2,5-difluorophenyl)pyrrolidin-1-yl)-3-(1-(piperidin-3-yl)-1H-1,2,3-triazol-4-yl)pyrazolo[1,5-a]pyrimidine] the IC50 [1] was under 10 nM.

Compound Fc1ccc(F)c([C@H]2CCCN2c2ccn3ncc(-c4cn(C5CCNC5)nn4)c3n2)c1 (stereo partly drawn) [Chemical Compound 35, 5-((R)-2-(2,5-difluorophenyl)pyrrolidin-1-yl)-3-(1-(pyrrolidin-3-yl)-1H-1,2,3-triazol-4-yl)pyrazolo[1,5-a]pyrimidine] has an IC50 [1] of under 10 nM.

For O=C(Cn1cc(-c2cnn3ccc(N4CCC[C@@H]4c4cc(F)ccc4F)nc23)nn1)N1CCNCC1 [Chemical Compound 37, (R)-2-(4-(5-(2-(2,5-difluorophenyl)pyrrolidin-1-yl)pyrazolo[1,5-a]pyrimidin-3-yl)-1H-1,2,3-triazol-1-yl)-1-(piperazin-1-yl)ethan-1-one], the IC50 [1] was under 10 nM.

O=C1CN(C(=O)/C=C/c2cnn3ccc(N4CCC[C@@H]4c4cc(F)ccc4F)nc23)CCN1 [Chemical Compound 51, (R,E)-4-(3-(5-(2-(2,5-difluorophenyl)pyrrolidin-1-yl)pyrazolo[1,5-a]pyrimidin-3-yl)acryloyl)piperazin-2-one] showed an IC50 [1] of under 10 nM.

In the case of CC(C)(O)C1CN(C(=O)/C=C/c2cnn3ccc(N4CCC[C@@H]4c4cc(F)ccc4F)nc23)CCN1 (stereo partly drawn) [Chemical Compound 52, (E)-3-(5-((R)-2-(2,5-difluorophenyl)pyrrolidin-1-yl)pyrazolo[1,5-a]pyrimidin-3-yl)-1-(3-(2-hydroxypropan-2-yl)piperazin-1-yl)prop-2-en-1-one], the IC50 [1] was under 10 nM.

In the case of CN1CCN(C(=O)/C=C/c2cnn3ccc(N4CCC[C@@H]4c4cc(F)ccc4F)nc23)CC1 [Chemical Compound 53, (R,E)-3-(5-(2-(2,5-difluorophenyl)pyrrolidin-1-yl)pyrazolo[1,5-a]pyrimidin-3-yl)-1-(4-methylpiperazin-1-yl)prop-2-en-1-one], the IC50 [1] was under 10 nM and the IC50 [2] was under 100 nM.

For CC(C)N1CCN(C(=O)/C=C/c2cnn3ccc(N4CCC[C@@H]4c4cc(F)ccc4F)nc23)CC1 [Chemical Compound 55, (R,E)-3-(5-(2-(2,5-difluorophenyl)pyrrolidin-1-yl)pyrazolo[1,5-a]pyrimidin-3-yl)-1-(4-isopropylpiperazin-1-yl)prop-2-en-1-one], the IC50 [1] was under 10 nM and the IC50 [2] was under 100 nM.

O=C(/C=C/c1cnn2ccc(N3CCC[C@@H]3c3cc(F)ccc3F)nc12)N1CCCNCC1 [Chemical Compound 56, (R,E)-1-(1,4-diazepan-1-yl)-3-(5-(2-(2,5-difluorophenyl)pyrrolidin-1-yl)pyrazolo[1,5-a]pyrimidin-3-yl)prop-2-en-1-one] gave an IC50 [1] of over 100 nM.

For CC1(O)CCN(C(=O)/C=C/c2cnn3ccc(N4CCC[C@@H]4c4cc(F)ccc4F)nc23)CC1 [Chemical Compound 58, (R,E)-3-(5-(2-(2,5-difluorophenyl)pyrrolidin-1-yl)pyrazolo[1,5-a]pyrimidin-3-yl)-1-(4-hydroxy-4-methylpiperidin-1-yl)prop-2-en-1-one], the IC50 [1] was under 10 nM and the IC50 [2] was under 10 nM.

“(R,E)-3-(5-(2-(2,5-difluorophenyl)pyrrolidin-1-yl)pyrazolo[1,5-a]pyrimidin-3-yl)-1-(4-ethylpiperazin-1-yl)prop-2-en-1-one [Chemical Compound 54]” gave an IC50 [1] of over 100 nM.
